Measured values as given in US7799924B2, “Substituted homopiperidine, piperidine or pyrrolidine derivatives” (High Point Pharmaceuticals, LLC, priority 2002, dated 2010).

melting point: 222 to 224 °C
SMILES: CN1CCC(c2noc(-c3ccc(-c4ccccc4)cc3)n2)CC1.CS(=O)(=O)O
